Assay results: patent publication US20070004735A1, “Method for inhibiting the replication of herpes viruses” (priority 2003, published 2007)

Assays:
[1] = test system: HCMV AD169 clone with mutation in UL86 K1338N; experiment: Susceptibility (IC50) of resistant HCMV AD169 clone K1338N; assay type: cell-based, Human cytomegalovirus; details: Human betaherpesvirus 5, read-out: IC 50, K1338N
Procedure: (§1) The test compounds are employed as 50 millimolar (mM) solutions in dimethyl sulfoxide (DMSO). Ganciclovir®, Foscarnet® and Cidofovir® are used as reference compounds. After addition of in each case 2 μl of the 50, 5, 0.5 and 0.05 mM DMSO stock solutions to 98 μl portions of cell culture medium in row 2 A-H for duplicate determinations, 1:2 dilutions are carried out with 50 μl portions of medium up to row 11 of the 96-well plate. The wells in rows 1 and 12 each contain 50 μl of medium. 150 μl of a suspension of 1×10^4 cells (human prepuce fibroblasts [NHDF]) are then pipetted into each of the wells (row 1=cell control) and, in rows 2-12, a mixture of HCMV-infected and uninfected NHDF cells (M.O.I.=0.001-0.002), i.e. 1-2 infected cells per 1000 uninfected cells. Row 12 (without substance) serves as virus control. The final test concentrations are 250-0.0005 μM. The plates are incubated at 37° C./5% CO2 for 6 days, i.e. until all the cells are infected in the virus controls (100% cytopathogenic effect [CPE]). The wells are then fixed and stained by adding a mixture of formalin and Giemsa's dye (30 minutes), washed with double-distilled water and dried in a drying oven at 50° C. The plates are then assessed visually using an overhead microscope (plaque multiplier from Technomara).
(§2) For this purpose, NHDF cells are seeded in tissue culture vessels. 5×10^3 cells per well are seeded in 96-well plates and infected with cell-free HCMV AD169 with an moi of 0.03. The infections are cultivated under substance pressure which corresponds to 10 times the IC50 of the substance. Preferably, 30-100 96-well plates inoculated as described are made up. […] Finally, viral stocks are produced as described above and frozen. Serial ten-fold dilution of the virus-infected cells or of the cell culture supernatant of the virus-infected cells is followed by determination of the titer on 24-well plates of confluent NHDF cells after vital staining with neutral red. Finally, the susceptibility to various substances (IC50 determination) is determined as described above.
(§3) The HCMVAD169 mutants selected as described above are grown in vitro on human embryonic prepuce fibroblasts (NHDF cells) under substance pressure (10×IC50 HCMVAD169). After infection of the NHDF cells with a multiplicity of infection (M.O.I) of 0.01, the virus-infected cells are harvested 5-10 days later, and the total DNA is isolated from these cells with the aid of established standard methods (e.g. phenol extraction and ethanol precipitation). Qiagen Sequencing Services (Qiagen, Hilden) determined, after amplification of the viral UL86 gene by PCR, the DNA sequence, which was then transcribed into protein sequence. Compared with the initial strain HCMV AD169, the differences shown in table 2 were detectable in the protein sequence of the major capsid protein (UL86) in the resistant viruses. The IC50 values [μM] of various substances on these mutants compared with the initial strain are likewise indicated. (n.d.=not measured). […] Depending on the nature of the substance, certain mutations lead to various extents of resistance.

[2] = test system: wild-type HCMV AD169; experiment: Susceptibility (IC50) of HCMV AD169 wild-type; assay type: cell-based, Human cytomegalovirus; details: Human betaherpesvirus 5, NHDF cells, read-out: IC 50, Wild-type
Procedure: as §1, §2, §3

[3] = test system: HCMV AD169 clone with mutation in UL86 R435C; experiment: Susceptibility (IC50) of resistant HCMV AD169 clone R435C; assay type: cell-based, Human cytomegalovirus; details: Human betaherpesvirus 5, read-out: IC 50, R435C
Procedure: as §1, §2, §3

[4] = test system: HCMV AD169 clone with mutation in UL86 D563N; experiment: Susceptibility (IC50) of resistant HCMV AD169 clone D563N; assay type: cell-based, Human cytomegalovirus; details: Human betaherpesvirus 5, read-out: IC 50, D563N
Procedure: as §1, §2, §3

[5] = test system: Human cytomegalovirus (HCMV); experiment: Anti-HCMV cytopathogenicity test; assay type: cell-based; details: for IC50: Human betaherpesvirus 5, 144 h, NHDF cells, 6 days, cytopathogenic effect, read-out: IC50, antiviral activity in vitro; for SI (selectivity index): antiviral activity in vitro
Procedure: Human cytomegalovirus (HCMV), DavisSmith (ATCC VR807) or AD169 (ATCC VR538) strain, is grown in vitro on human embryonic prepuce fibroblasts (NHDF cells). After the NHDF cells have been infected with a multiplicity of infection (M.O.I.) of 0.01, the virus-infected cells are harvested 5-10 days later and stored in the presence of minimal essential medium (MEM), 10% fetal calf serum (FCS) with 10% DMSO at −80° C. A cell-free stock is produced by removing only the cell culture supernatant and immediately freezing at −80° C. After serial ten-fold dilutions of the virus-infected cells or of the cell culture supernatant of the virus-infected cells (cell-free virus), the titer is determined on 24-well plates of confluent NHDF cells after vital staining with neutral red.
as §1

[6] = test system: HCMV AD169 clone with mutation in UL86 Q1223R; experiment: Susceptibility (IC50) of resistant HCMV AD169 clone Q1223R; assay type: cell-based, Human cytomegalovirus; details: Human betaherpesvirus 5, read-out: IC 50, Q1223R
Procedure: as §1, §2, §3

[7] = test system: HCMV AD169 clone with mutation in UL86 V601M; experiment: Susceptibility (IC50) of resistant HCMV AD169 clone V601M; assay type: cell-based, Human cytomegalovirus; details: Human betaherpesvirus 5, read-out: IC 50, V601M
Procedure: as §1, §2, §3

[8] = test system: HCMV AD169 clone with mutation in UL86 P586T; experiment: Susceptibility (IC50) of resistant HCMV AD169 clone P586T; assay type: cell-based, Human cytomegalovirus; details: Human betaherpesvirus 5, read-out: IC 50, P586T
Procedure: as §1, §2, §3

[9] = test system: HCMV AD169 clone with mutation in UL86 A689T; experiment: Susceptibility (IC50) of resistant HCMV AD169 clone A689T; assay type: cell-based, Human cytomegalovirus; details: Human betaherpesvirus 5, read-out: IC 50, A689T
Procedure: as §1, §2, §3

[10] = test system: HCMV AD169 clone with mutation in UL86 E1320Q; experiment: Susceptibility (IC50) of resistant HCMV AD169 clone E1320Q; assay type: cell-based, Human cytomegalovirus; details: Human betaherpesvirus 5, read-out: IC 50, E1320Q
Procedure: as §1, §2, §3

[11] = test system: HCMV AD169 clone with mutation in UL86 P1189T; experiment: Susceptibility (IC50) of resistant HCMV AD169 clone P1189T; assay type: cell-based, Human cytomegalovirus; details: Human betaherpesvirus 5, read-out: IC 50, P1189T
Procedure: as §1, §2, §3

[12] = test system: HCMV AD169 clone with mutation in UL86 R682H; experiment: Susceptibility (IC50) of resistant HCMV AD169 clone R682H; assay type: cell-based, Human cytomegalovirus; details: Human betaherpesvirus 5, read-out: IC 50, R682H
Procedure: as §1, §2, §3

[13] = test system: HCMV AD169 clone with mutation in UL86 A1226T; experiment: Susceptibility (IC50) of resistant HCMV AD169 clone A1226T; assay type: cell-based, Human cytomegalovirus; details: Human betaherpesvirus 5, read-out: IC 50, A1226T
Procedure: as §1, §2, §3

[14] = test system: HCMV AD169 clone with mutation in UL86 D441N; experiment: Susceptibility (IC50) of resistant HCMV AD169 clone D441N; assay type: cell-based, Human cytomegalovirus; details: Human betaherpesvirus 5, read-out: IC 50, D441N
Procedure: as §1, §2, §3

Structure (SMILES) | IC50 [1] | IC50 [2] | IC50 [3] | IC50 [4] | IC50 [5] | SI (selectivity index) [5] | IC50 [6] | IC50 [7] | IC50 [8] | IC50 [9] | IC50 [10] | IC50 [11] | IC50 [12] | IC50 [13] | IC50 [14] | melting point
O=C(Nc1cccc(-c2n[nH]c(=O)n2C2CCCCC2)c1)Nc1ccc(F)c(Cl)c1 [Example 7, 1-(3-Chloro-4-fluorophenyl)-3-[3-(4-cyclohexyl-5-oxo-4,5-dihydro-1H-[1,2,4]triazol-3-yl)phenyl]urea] | 15 µM | 1.5 µM | 3 µM | 15 µM | 1.5 µM | 30 | 12 µM | 12 µM | 7.6 µM | 4.5 µM | 24 µM | – | – | – | – | –
Nc1nc(O)c2ncn(COC(CO)CO)c2n1 [Ganciclovir, reference compound] | 1 µM | 1 µM | 1 µM | 1 µM | – | – | 1 µM | 1 µM | 1 µM | 1 µM | 1 µM | 1 µM | 1 µM | 1 µM | 1 µM | –
CC(C)n1c(-c2cccc(NC(=O)Nc3ccc(F)c(Cl)c3)c2)n[nH]c1=O [Example 6, 1-(3-Chloro-4-fluorophenyl)-3-[3-(4-isopropyl-5-oxo-4,5-dihydro-1H-[1,2,4]triazol-3-yl)phenyl]urea] | – | – | – | – | 0.4 µM | 150 | – | – | – | – | – | – | – | – | – | –
CCCCS(=O)(=O)Nc1cccc(NC(=O)Nc2ccc(F)c(Cl)c2)c1 [Example 5, N-[3-({[(3-Chloro-4-fluorophenyl)amino]carbonyl}amino)phenyl]-1-butanesulfonamide] | > 9 µM | 0.14 µM | 6 µM | 1.4 µM | 0.14 µM | 70 | 1.4 µM | 1.5 µM | 0.8 µM | 0.4 µM | 9 µM | – | – | – | – | –
Cc1cc(Cl)ccc1NC(=O)Nc1cccc(C2=NNC(=O)C2(C)C)c1 [Example 8, N-(4-Chloro-2-methylphenyl)-N′-[3-(4,4-dimethyl-5-oxo-4,5-dihydro-1H-pyrazol-3-yl)phenyl]urea] | > 21 µM | 0.6 µM | 1.3 µM | > 21 µM | 0.6 µM | 30 | > 21 µM | > 21 µM | > 21 µM | > 21 µM | > 21 µM | – | – | – | – | 226.8 °C
CC(=O)Nc1ccc(NC(=O)Nc2ccc(F)c(Cl)c2)cc1 [Example 3, N-[4-({[(3-Chloro-4-fluorophenyl)amino]carbonyl}amino)phenyl]acetamide] | > 20 µM | 0.5 µM | > 20 µM | > 20 µM | 0.5 µM | 40 | > 20 µM | > 20 µM | > 20 µM | > 20 µM | > 20 µM | > 20 µM | > 20 µM | > 20 µM | > 20 µM | –
